Measurements as given in EP0503388A1, “Pregna-21-oic acid esters” (TEIKOKU SEIYAKU KABUSHIKI KAISHA, priority 1991, dated 1992).

Tested on: back of volunteers (10 healthy adult males)
Assay: Vasoconstrictive activity: skin paleness after application of 0.1 % ointment in fin chamber
Type: in vivo
Conditions: for vasoconstrictive activity (skin paleness), overall result in words: 0.1 % by weight in white petrolatum base, compared with reference ointments of prednisolone and dexamethasone; for % of the number of subject which showed (+) Paleness was clearly observed / % of the number of subject which showed (±) Paleness was slightly obseved: 0.1 % by weight, about 20 mg of sample, 10 subjects
Experimental: The compounds of the present invention were tested for the vasoconstrictive activity in the following manner.
Each of the compounds (1) to (10) of the present invention was mixed in a white petrolatum base (white petrolatum : liquid paraffin = 9 : 1) at a concentration of 0.1 % by weight for use as a test sample. Commercially available steroidal medicaments (ointments of prednisolone and dexamethasone) were used at a concentration of 0.1 % by weight of the steroid as a reference sample. A commercially available ointment base was used as a control.
To one portion of the back of volunteers (10 healthy adult males) was applied each sample. About 20 mg of each sample was put in an aluminum part of fin chamber, which was applied. Two hours and four hours after the application, samples were simultanously removed. […] The result was evaluated based on the following criteria (-) Paleness was not observed. (±) Paleness was slightly obseved. (+) Paleness was clearly observed.

[1] = application time 2 hr, 2 hours after removal
[2] = application time 2 hr, 4 hours after removal
[3] = application time 4 hr, 2 hours after removal
[4] = application time 4 hr, 4 hours after removal

| Structure (SMILES) | vasoconstrictive activity (skin paleness), overall result in words | % of the number of subject which showed (+) Paleness was clearly observed [1] [%] | % of the number of subject which showed (±) Paleness was slightly obseved [1] [%] | % of the number of subject which showed (+) Paleness was clearly observed [2] [%] | % of the number of subject which showed (±) Paleness was slightly obseved [2] [%] | % of the number of subject which showed (+) Paleness was clearly observed [3] [%] | % of the number of subject which showed (±) Paleness was slightly obseved [3] [%] | % of the number of subject which showed (+) Paleness was clearly observed [4] [%] | % of the number of subject which showed (±) Paleness was slightly obseved [4] [%] |
| --- | --- | --- | --- | --- | --- | --- | --- | --- | --- |
| COC(=O)[C@@H](O)[C@@]1(O)[C@H](C)C[C@H]2[C@@H]3CCC4=CC(=O)C=C[C@]4(C)[C@@]3(F)[C@@H](O)C[C@@]21C [(5), methyl (20S)-9α-fluoro-16α-methyl-11β,17,20-trihydroxy-3-oxo-1,4-pregnadien-21-oate] | did not show significant difference from reference | – | – | – | – | – | – | – | – |
| COC(=O)[C@H](O)[C@@]1(O)[C@H](C)C[C@H]2[C@@H]3CCC4=CC(=O)C=C[C@]4(C)[C@@]3(F)[C@@H](O)C[C@@]21C [(6), methyl (20R)-9α-fluoro-16α-methyl-11β,17,20-trihydroxy-3-oxo-1,4-pregnadien-21-oate] | did not show significant difference from reference | – | – | – | – | – | – | – | – |
| COC(=O)[C@H](OC(=O)C(C)(C)C)[C@@]1(O)CC[C@H]2[C@@H]3CCC4=CC(=O)C=C[C@]4(C)[C@H]3[C@@H](O)C[C@@]21C [Compound (4)] | – | 0 | 10 | 0 | 70 | 20 | 70 | 40 | 100 |
| COC(=O)[C@@H](OC(C)=O)[C@@]1(O)[C@H](C)C[C@H]2[C@@H]3CCC4=CC(=O)C=C[C@]4(C)[C@@]3(F)[C@@H](O)C[C@@]21C [Compound (7), methyl (20S/R)-acetoxy-11β,17-dihydroxy-9α-fluoro-16α-methyl-3-oxo-1,4-pregnadien-21-oate] | excellent pharmacological activity | 0 | 10 | 0 | 50 | 30 | 70 | 50 | 80 |
| COC(=O)[C@H](OC(C)=O)[C@@]1(O)[C@H](C)C[C@H]2[C@@H]3CCC4=CC(=O)C=C[C@]4(C)[C@@]3(F)[C@@H](O)C[C@@]21C [Compound (8), methyl (20S/R)-acetoxy-11β,17-dihydroxy-9α-fluoro-16α-methyl-3-oxo-1,4-pregnadien-21-oate] | did not show significant difference from reference | – | – | – | – | – | – | – | – |
| COC(=O)[C@@H](OC(=O)C(C)(C)C)[C@@]1(O)[C@H](C)C[C@H]2[C@@H]3CCC4=CC(=O)C=C[C@]4(C)[C@@]3(F)[C@@H](O)C[C@@]21C [Compound (9), methyl (20S)-11β,17-dihydroxy-9α-fluoro-16α-methyl-3-oxo-20-pivaloyloxy-1,4-pregnadien-21-oate] | excellent pharmacological activity | 0 | 0 | 0 | 0 | 0 | 50 | 10 | 90 |
| COC(=O)[C@H](OC(=O)C(C)(C)C)[C@@]1(O)[C@H](C)C[C@H]2[C@@H]3CCC4=CC(=O)C=C[C@]4(C)[C@@]3(F)[C@@H](O)C[C@@]21C [Compound (10), methyl (20R)-11β,17-dihydroxy-9α-fluoro-16α-methyl-3-oxo-20-pivaloyloxy-1,4-pregnadien-21-oate] | – | 0 | 0 | 0 | 10 | 0 | 0 | 0 | 10 |
| C[C@@H]1C[C@H]2[C@@H]3CCC4=CC(=O)C=C[C@]4(C)[C@@]3(F)[C@@H](O)C[C@]2(C)[C@@]1(O)C(=O)CO [Dexamethasone, dexamethasone, reference compound] | – | 0 | 0 | 0 | 10 | 0 | 10 | 0 | 20 |
| C[C@]12C=CC(=O)C=C1CC[C@@H]1[C@@H]2[C@@H](O)C[C@@]2(C)[C@H]1CC[C@]2(O)C(=O)CO [Prednisolone, prednisolone, reference compound] | – | 0 | 0 | 0 | 0 | 0 | 0 | 0 | 0 |
